# Reference: US20210228552A1, “METHOD FOR ADJUSTING RAS UBIQUITINATION” (Xiamen University, priority 2018, published 2021)
# “Also recorded” adds a separate entry of the source.
# What was measured:
# K-Ras-G12V [1] = biological target: T1, K-Ras-G12V (Homo sapiens, UniProt P01116, G12V); experiment: Exogenous Flag-K-Ras-G12V protein level in transfected HEK293T cells (Western blotting); assay type: cell-based; conditions: HEK293T cells transfected with Flag-K-Ras-G12V, 2.5-20 μM, 24 h, FIG. 3(b)
# Method: Compounds that can Decrease the Level of Exogenous K-Ras-G12V were Screened in HEK293T Cells
# 1) Cell plating: HEK293T cells in logarithmic growth phase were inoculated into 12-well plates and cultured in 37° C. and 5% CO2 incubator. The best inoculation amount was at a cell density of 70%-90% when transfected the next day. […]
# (§1) 3) Detection of K-Ras protein level: 24 hours after administration, liquid in the well was discarded, the cells were routinely collected, the cells were rinsed twice with 1×PBS, and the cell lysate was added to extract the total cell protein. The protein concentration was determined by BCA method. […]
# (§2) 4) Calculation of single point K-Ras protein degradation rate: quantitative and calibration analysis on Flag-K-Ras and β-actin were performed by Image-Lab software, and then the intracellular Flag-K-Ras degradation rate was calculated according to the following formula: single point Flag-K-Ras protein degradation rate (%)=(control group-administration group)/control group×100%. […]
# MCF-7 cells = experiment: Colony forming ability on soft agar, MCF-7 cells; assay type: cell-based, Human; conditions: 10-30 days, FIG. 4(a)
# Method: (§3) i. 1% agar was prepared and sterilized under high pressure. 1% Agar was heated and melted in a boiling water bath before use, then cooled in a 40° C. water bath (standing for at least 30 minutes and cooling the agar to 40° C.); and 2×DMEM/FBS was placed in a warm bath at the same time;
# (§4) ii. 0.5% bottom agar was prepared by mixing 1% agar and 2×DMEM/FBS in a sterile tube at a volume ratio of 1:1. The mixture was quickly added to a 6-well plate, 1.5 mL per well, gently shake it well, and it was stood at room temperature to be solidified (after solidification, it can be stored at 4° C. for 1 week. Leave at room temperature for at least 30 minutes before use to restore it to room temperature).
# (§5) i. A final concentration of 0.3% agar+1×DMEM/FBS mixture was prepared in sterile tubes by using 1% agar at a temperature of 40° C., 2×DMEM/FBS and sterile water. The prepared mixed solution was put into a 40° C. water bath kettle for later use;
# (§6) ii. The cells were digested by trypsin and counted, and the cell density was adjusted according to the needs of the experiment; […]
# SW620 cells = experiment: Colony forming ability on soft agar, SW620 cells; assay type: cell-based, Human; conditions: 10-30 days, FIG. 4(b)
# Method: as §3, §4, §5, §6
# HT-29 cells = experiment: Colony forming ability on soft agar, HT-29 cells; assay type: cell-based, Human; conditions: HT-29 cells (Raf kinase mutation), 10-30 days, FIG. 4(c)
# Method: as §3, §4, §5, §6
# K-Ras-G12V [2] = biological target: T1, K-Ras-G12V; experiment: Endogenous K-Ras-G12V protein level in SW620 cells (Western blotting); assay type: cell-based; parameters: endogenous in cells; host or cells: SW620; conditions: 2.5-20 μM, 24 h, FIG. 3(a)
# Method: Compounds that can Decrease the Level of Endogenous K-Ras-G12V were Screened in SW620 Cells
# 1) Cell plating: SW620 cells in logarithmic growth phase were inoculated into 24-well plates with 2×10^4/well and cultured in 37° C. and 5% CO2 incubator.
# 2) Cell administration: after 24 hours of culture, various drug stock solutions were diluted […]; the stock solution from the 24-well plate was discarded, then the prepared drug solution was added, with taking the DMSO group as a blank control; after the drug was added, it was transferred to the CO2 incubator at 37° C. to continue the culture.
# as §1
# as §2, with “K-Ras” for “Flag-K-Ras”
compound,measurement,setting,value
O=C(NCc1ccccc1C(F)(F)F)c1c[nH]c(-c2n[nH]c3ncccc23)c1 [ZT-10-158-01],level of exogenous K-Ras-G12V protein,K-Ras-G12V [1],"effective in decreasing K-Ras protein levels in cells, and in a positive concentration-dependent correlation; also recorded: effective in decreasing the level of exogenous K-Ras-G12V protein in HEK293T cells with a positive concentration-dependent inhibitory effect"
same,colony forming ability on agar,MCF-7 cells,can selectively inhibit the colony formation; also recorded: effective in inhibiting colony forming ability
same,colony forming ability on agar,SW620 cells,can selectively inhibit the colony formation; also recorded: effective in inhibiting colony forming ability
same,colony forming ability on agar,HT-29 cells,no significant inhibitory effect; also recorded: did not inhibit the colony forming ability
same,level of endogenous K-Ras-G12V protein,K-Ras-G12V [2],"effective in decreasing K-Ras protein levels in cells, and in a positive concentration-dependent correlation; also recorded: effective in decreasing the level of endogenous K-Ras-G12V protein in SW620 cells with a positive concentration-dependent inhibitory effect"
